Reference: ChEMBL document CHEMBL3885861, “Open TG-GATES”

Species on record: Rattus norvegicus
Assay: Open TG-GATES - Regimen: Single
Assay type: toxicity, organism-based, Sprague-Dawley
Design: regimen Single, gender Male, age 6 weeks
Conditions: in vivo, po, 1000 mg/kg, route gavage, dose level Middle; for APTT / Bas / Eos / Fbg / Hb / Ht / Lym / MCH / MCHC / MCV / Mono / Neu / PT / Plat / RBC / Ret / WBC: tissue Blood; for KIDNEY_L / KIDNEY_R / KIDNEY_TOTAL: tissue Kidney; for LIVER: tissue Liver; for A/G / ALP / ALT / AST / BUN / CRE / Ca / Cl / DBIL / GLC / IP / K / LDH / Na / PL / RALB / TBIL / TC / TG / TP / gamma-GTP: tissue Plasma

`COc1ccc(O)c(C(C)(C)C)c1.COc1ccc(O)cc1C(C)(C)C` [BUTYLATED HYDROXYANISOLE] showed a TERMINAL_BW (3 h) of 206 g, an APTT (3 h) of 14.7 s and a Bas (3 h) of 0.2%. For the same compound, the Eos (3 h) was 0.5%, the Fbg (3 h) was 270.8 mg/dL and the Hb (3 h) was 13.5 g/dL. For the same compound, the Ht (3 h) was 39.4%, the Lym (3 h) was 79.2% and the MCH (3 h) was 20.8 pg. It also gave an MCHC (3 h) of 34.3%, an MCV (3 h) of 60.8 fL and a Mono (3 h) of 1.9%. The Neu (3 h) was 17.3%, the PT (3 h) was 11.6 s and the Plat (3 h) was 142.9 x10_4/uL. The RBC (3 h) was 649 x10_4/ul, the Ret (3 h) was 7.8% and the WBC (3 h) was 77.2 x10_2/uL. The KIDNEY_L (3 h) was 0.9 g, the KIDNEY_R (3 h) was 0.9 g and the KIDNEY_TOTAL (3 h) was 1.8 g. It also gave an LIVER (3 h) of 8.6 g, an A/G (3 h) of 0.8 and an ALP (3 h) of 1827.4 IU/L. The ALT (3 h) was 53.4 IU/L, the AST (3 h) was 77.8 IU/L and the BUN (3 h) was 10.6 mg/dL. The CRE (3 h) was 0.2 mg/dL, the Ca (3 h) was 11.1 mg/dL and the Cl (3 h) was 103.6 meq/L. For the same compound, the DBIL (3 h) was 0.028 mg/dL, the GLC (3 h) was 179.2 mg/dL and the IP (3 h) was 10.3 mg/dL. For the same compound, the K (3 h) was 3.5 meq/L, the LDH (3 h) was 60.8 IU/L and the Na (3 h) was 142.6 meq/L. It also gave a PL (3 h) of 150.6 mg/dL, an RALB (3 h) of 2.6 g/dL and a TBIL (3 h) of 0.084 mg/dL. It also gave a TC (3 h) of 85.2 mg/dL, a TG (3 h) of 76.4 mg/dL and a TP (3 h) of 5.8 g/dL. The gamma-GTP (3 h) was 1 IU/L, the TERMINAL_BW (6 h) was 201.1 g and the APTT (6 h) was 15.6 s. The Bas (6 h) was 0.2%, the Eos (6 h) was 0.8% and the Fbg (6 h) was 279.6 mg/dL. The Hb (6 h) was 13.9 g/dL, the Ht (6 h) was 40.4% and the Lym (6 h) was 72.6%. For the same compound, the MCH (6 h) was 21.2 pg, the MCHC (6 h) was 34.3% and the MCV (6 h) was 61.8 fL. It also gave a Mono (6 h) of 1.6%, a Neu (6 h) of 24.1% and a PT (6 h) of 12.7 s. The Plat (6 h) was 136.4 x10_4/uL, the RBC (6 h) was 654.6 x10_4/ul and the Ret (6 h) was 7.3%. For the same compound, the WBC (6 h) was 78.7 x10_2/uL, the KIDNEY_L (6 h) was 0.9 g and the KIDNEY_R (6 h) was 0.8 g. For the same compound, the KIDNEY_TOTAL (6 h) was 1.7 g, the LIVER (6 h) was 7.5 g and the A/G (6 h) was 0.9. For the same compound, the ALP (6 h) was 1472.6 IU/L, the ALT (6 h) was 49.4 IU/L and the AST (6 h) was 74 IU/L. For the same compound, the BUN (6 h) was 9.6 mg/dL, the CRE (6 h) was 0.2 mg/dL and the Ca (6 h) was 10.9 mg/dL. It also gave a Cl (6 h) of 108.4 meq/L, a DBIL (6 h) of 0.034 mg/dL and a GLC (6 h) of 166 mg/dL. The IP (6 h) was 9.8 mg/dL, the K (6 h) was 4 meq/L and the LDH (6 h) was 54.8 IU/L. For the same compound, the Na (6 h) was 142.6 meq/L, the PL (6 h) was 139.4 mg/dL and the RALB (6 h) was 2.6 g/dL. The TBIL (6 h) was 0.09 mg/dL, the TC (6 h) was 81.4 mg/dL and the TG (6 h) was 68.6 mg/dL. For the same compound, the TP (6 h) was 5.7 g/dL, the gamma-GTP (6 h) was 1 IU/L and the TERMINAL_BW (9 h) was 199.9 g. For the same compound, the APTT (9 h) was 16.6 s, the Bas (9 h) was 0.2% and the Eos (9 h) was 0.9%. For the same compound, the Fbg (9 h) was 285 mg/dL, the Hb (9 h) was 13.6 g/dL and the Ht (9 h) was 39.7%. It also gave a Lym (9 h) of 71.9%, an MCH (9 h) of 21.1 pg and an MCHC (9 h) of 34.4%. For the same compound, the MCV (9 h) was 61.6 fL, the Mono (9 h) was 1.6% and the Neu (9 h) was 24.9%. It also gave a PT (9 h) of 13.2 s, a Plat (9 h) of 138.7 x10_4/uL and an RBC (9 h) of 643.8 x10_4/ul. The Ret (9 h) was 7.6%, the WBC (9 h) was 65.3 x10_2/uL and the KIDNEY_L (9 h) was 0.9 g. It also gave a KIDNEY_R (9 h) of 0.8 g, a KIDNEY_TOTAL (9 h) of 1.7 g and an LIVER (9 h) of 7.5 g. The A/G (9 h) was 0.8, the ALP (9 h) was 1561.2 IU/L and the ALT (9 h) was 41.6 IU/L. The AST (9 h) was 72.8 IU/L, the BUN (9 h) was 7.6 mg/dL and the CRE (9 h) was 0.2 mg/dL. For the same compound, the Ca (9 h) was 11 mg/dL, the Cl (9 h) was 107.8 meq/L and the DBIL (9 h) was 0.03 mg/dL. It also gave a GLC (9 h) of 154.8 mg/dL, an IP (9 h) of 10.3 mg/dL and a K (9 h) of 4 meq/L. The LDH (9 h) was 51.4 IU/L, the Na (9 h) was 142.8 meq/L and the PL (9 h) was 135.2 mg/dL. It also gave an RALB (9 h) of 2.7 g/dL, a TBIL (9 h) of 0.09 mg/dL and a TC (9 h) of 78.2 mg/dL. For the same compound, the TG (9 h) was 44.6 mg/dL, the TP (9 h) was 5.9 g/dL and the gamma-GTP (9 h) was 0.8 IU/L. The TERMINAL_BW (24 h) was 209.5 g, the APTT (24 h) was 16.1 s and the Bas (24 h) was 0.2%. For the same compound, the Eos (24 h) was 0.4%, the Fbg (24 h) was 257 mg/dL and the Hb (24 h) was 13.5 g/dL. For the same compound, the Ht (24 h) was 39.5%, the Lym (24 h) was 79.9% and the MCH (24 h) was 20.8 pg. It also gave an MCHC (24 h) of 34.1%, an MCV (24 h) of 61 fL and a Mono (24 h) of 2.3%. It also gave a Neu (24 h) of 16.1%, a PT (24 h) of 12.4 s and a Plat (24 h) of 150.2 x10_4/uL. For the same compound, the RBC (24 h) was 647.4 x10_4/ul, the Ret (24 h) was 6.3% and the WBC (24 h) was 89 x10_2/uL. For the same compound, the KIDNEY_L (24 h) was 0.9 g, the KIDNEY_R (24 h) was 0.9 g and the KIDNEY_TOTAL (24 h) was 1.9 g. For the same compound, the LIVER (24 h) was 9.4 g, the A/G (24 h) was 0.9 and the ALP (24 h) was 1827.8 IU/L. The ALT (24 h) was 46.2 IU/L, the AST (24 h) was 75.8 IU/L and the BUN (24 h) was 12.4 mg/dL. It also gave a CRE (24 h) of 0.2 mg/dL, a Ca (24 h) of 11.4 mg/dL and a Cl (24 h) of 107.8 meq/L. It also gave a DBIL (24 h) of 0.046 mg/dL, a GLC (24 h) of 156.4 mg/dL and an IP (24 h) of 8.3 mg/dL. The K (24 h) was 4.3 meq/L, the LDH (24 h) was 72 IU/L and the Na (24 h) was 142.8 meq/L. It also gave a PL (24 h) of 149 mg/dL, an RALB (24 h) of 2.7 g/dL and a TBIL (24 h) of 0.098 mg/dL. The TC (24 h) was 84.2 mg/dL, the TG (24 h) was 236.8 mg/dL and the TP (24 h) was 5.8 g/dL. It also gave a gamma-GTP (24 h) of 1 IU/L.
